Experimental data as given in PubChem BioAssay AID463229 (Broad Institute, 2010).
Values joined by “and” are separate entries in the source; they are usually repeats but may differ in a detail not shown here. Identical values can stand only once. Active and inactive are the calls of the source.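 The calls were made as follows: active = compounds raising the signal whose fitted half-maximal concentration is at or below their top tested dose (cut at about 25 µM in these data); inconclusive = flat fit at 30 to 70% activity, or a poor fit; inactive = the rest.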

These compounds were tested on INS-1E rat beta cells, no cytokines, CellTiter-Glo ATP, 48 h (assay: ATP level change in INS-1E without cytokines, dose response, counter-screen for beta-cell apoptosis protection project, INS-1E rat cells, ATP luminescence, cherry pick (AID 463229)).
For C=CC[n+]1c(-c2ccc(OCC)cc2)csc1NNC(=O)Nc1ccccc1, the AC50 was 12.1 µM. For CC1Cc2cc(S(=O)(=O)N3CCC(C(=O)N4CCN(c5ccccc5F)CC4)CC3)ccc2N1C(=O)C1CC1 (configuration not stated), the AC50 was 8 µM. For CCC(CO)Oc1cc(NCc2ccc(C)c(C)c2)c2ncn(C(C)C)c2c1 (configuration not stated), the AC50 was 4.91 µM. With Cc1cc(C(=O)C(C)OC(=O)c2ccc(NC(=O)CC#N)cc2)c(C)n1-c1ccc(OC(F)F)cc1 (configuration not stated) the AC50 was 8.14 µM. Compound Cc1ccc(-c2c[n+](Cc3ccc(Cl)c(Cl)c3)c3n2CCC3)cc1 has an AC50 of 4.72 µM. With Cn1c(SCC(=O)N/N=C/c2ccc([N+](=O)[O-])s2)nnc1-c1ccccc1 the AC50 was 5.11 µM. In the case of CCOC(=O)CC1CCCCN1C(=O)c1cc(COc2cccc3cnccc23)on1 (configuration not stated), the AC50 was 8.19 µM. For Cc1cc(C)cc(Oc2cc(NC(=O)c3cn(C)nc3C)cc([N+](=O)[O-])c2)c1, the AC50 was 2.58 µM. With OCCNc1nc(Nc2ccc(Cl)c(Cl)c2)nc2ccccc12 the AC50 was 14.3 µM. For CCCCCn1c(=O)c(C(=O)Nc2ncccc2C)c(O)c2ccccc21, the AC50 was 6.75 µM. Work on C=C[C@H](CC(C)C)N(Cc1ccccc1)S(=O)(=O)N(Cc1ccccc1)[C@@H](C=C)CC(C)C yielded an AC50 of 5.72 µM. With CCOC(=O)c1c(NC(=O)c2cc(-c3ccc(Cl)s3)nc3ccccc23)sc(C(N)=O)c1C the AC50 was 11.5 µM. For CC(=O)NC(c1ccco1)c1cc(F)c2cccnc2c1O (configuration not stated), the AC50 was 10.6 µM. Work on Cc1ccc(-c2nn(-c3ccccc3)cc2/C=C/C(=O)Nc2cccc(S(N)(=O)=O)c2)cc1 yielded an AC50 of 2.75 µM. O=C(N/N=C\c1c(O)ccc2ccccc12)c1ccc(Cn2cccn2)o1 showed an AC50 of 4.39 µM. Compound CCn1c(SCC(=O)Nc2cc(C)on2)nc2sc3c(c2c1=O)CCCC3 has an AC50 of 16.7 µM. CC1CN(S(=O)(=O)c2ccc(C(=O)NCCCn3ccnc3)cc2)CC(C)O1 (configuration not stated) showed an AC50 of 1.39 µM. With Nc1nonc1-n1nnc(C(=O)N/N=C/c2cc(Br)ccc2O)c1CNc1ccccc1 the AC50 was 8.29 µM. With COc1ccccc1C(=O)Nc1nc(-c2ccc(S(=O)(=O)N3CCOCC3)cc2)cs1 the AC50 was 5.29 µM. With c1ccc(CCNc2nc(-c3ccccn3)nc3ccccc23)cc1 the AC50 was 4.92 µM. CCOC(=O)c1cnc(-n2nc(C)cc2C)nc1NC(C)c1ccccc1 (configuration not stated) was tested, and the AC50 was 13.7 µM. CCC(O)C1CCN(C(=O)c2cc(COc3ccc4ncccc4c3)on2)CC1 (configuration not stated) gave an AC50 of 5.52 µM. Cc1cc(F)ccc1S(=O)(=O)Nc1ccccc1C(=O)Nc1ccccc1-c1nc2ccccc2[nH]1 showed an AC50 of 7.72 µM. Work on Cc1ccc(NS(=O)(=O)c2ccc(Cl)c(NC(=S)NC(=O)C3CCCCC3)c2)cc1Cl yielded an AC50 of 14 µM. Work on O=C(CNc1ccccc1)N/N=C/c1c(O)ccc2ccccc12 yielded an AC50 of 15.8 µM. Compound O=C(Nc1cccc(NC(=O)c2cc([N+](=O)[O-])ccc2Cl)n1)c1cc([N+](=O)[O-])ccc1Cl has an AC50 of 14.8 µM. Cc1ccc(C)c(S(=O)(=O)Nc2cc(SCC(=O)O)c(O)c3ccccc23)c1 was tested, and the AC50 was 7.19 µM. Cc1nc2ccccc2nc1N/N=C/c1ccc(O)cc1O was tested, and the AC50 was 3.6 µM. Cc1ccccc1NC(=O)/C=C/c1ccc([N+](=O)[O-])s1 gave an AC50 of 6.96 µM. For Cc1onc(-c2c(Cl)cccc2Cl)c1C(=O)N/N=C(\N)COc1ccc(Cl)cc1, the AC50 was 14.5 µM. CCC(C)(C)c1ccc(OCCCC[n+]2ccc(C)cc2)c(C(C)(C)CC)c1 was tested, and the AC50 was 1.91 µM. CC1=C(C#N)C(C(F)(F)F)(C(F)(F)F)N=C(c2ccco2)N1 showed an AC50 of 12.8 µM. C(#Cc1ccccc1)C[N+]1(CC#Cc2cccc3ccccc23)CCCC1 was tested, and the AC50 was 8.17 µM. O=C(Nc1nc(-c2ccccn2)cs1)c1ccc(F)c(S(=O)(=O)N2CCOCC2)c1 showed an AC50 of 7.51 µM. With Cc1ccc(Cn2c(=N)n(CC(=O)c3ccccc3)c3ccccc32)cc1 the AC50 was 9.12 µM. Work on O=C(Nc1cc(Sc2ccccn2)cc([N+](=O)[O-])c1)c1cccc(F)c1 yielded an AC50 of 8.51 µM. C1CCC(C(CC2CCCCN2)C2CCCCC2)CC1 (configuration not stated) gave an AC50 of 9.74 µM. O=C(NCc1ccccc1)C1=C[C@@H](c2csc3ccccc23)C[C@@H](OCc2ccc(CO)cc2)O1 showed an AC50 of 5.16 µM. COc1ccc(-n2cc(-c3ccc(C)cc3)[n+]3c2SCC3)cc1 showed an AC50 of 0.924 µM. Compound O=[N+]([O-])c1ccc(O)c(/C=N/Nc2ccccn2)c1 has an AC50 of 1.84 µM. Work on CCN1CCN(Cc2ccc(NC(=O)c3cc(NC(=O)c4cnn(-c5ccccc5)c4N)cc(OC)c3)cc2C(F)(F)F)CC1 yielded an AC50 of 15.3 µM. With CCCCCCCCn1ccc(=N)cc1 the AC50 was 0.65 µM. Work on CCOc1ccc(-n2c(-c3ccc(OC)cc3)c[n+]3c2CCCCC3)cc1 yielded an AC50 of 0.289 µM. With N#Cc1c([N+](=O)[O-])cc([N+](=O)[O-])cc1S(=O)(=O)Cc1ccccc1 the AC50 was 4.91 µM. O=C1/C(=N\S(=O)(=O)c2cccs2)C([n+]2cccc(Cc3ccccc3)c2)=C([O-])c2ccccc21 gave an AC50 of 7.28 µM. CCc1ccc(OC)c(S(=O)(=O)Nc2ccc(Cc3ccncc3)cc2)c1 was tested, and the AC50 was 6.36 µM. Work on Oc1ccccc1C(Nc1nccs1)c1ccc2cccnc2c1O (configuration not stated) yielded an AC50 of 4.91 µM. For Oc1ccc2ccccc2c1/C=N/Nc1nnc(-c2ncc[nH]2)c2ccccc12, the AC50 was 3.39 µM. In the case of CCn1c(=NC(=O)CCS(=O)(=O)c2ccccc2)sc2cccc(OC)c21, the AC50 was 7.2 µM. CCCC[n+]1ccn(C2=C([O-])c3ccccc3C(=O)/C2=N\S(=O)(=O)c2ccc(Br)cc2)c1 showed an AC50 of 15.2 µM. C/C(=N\Nc1ccc2nncn2n1)c1ccccn1 gave an AC50 of 2.72 µM. CC(C)OCCCNc1ncnc2c1[nH]c1ccccc12 gave an AC50 of 4.34 µM. Compound CCc1ccc(S(=O)(=O)/N=C2\C=C(Nc3ccc(O)cc3)C(=O)c3ccccc32)cc1 has an AC50 of 2.21 µM. Work on CCOc1cc(/C=C2\COc3ccccc3C2=O)cc(Br)c1OCC(=O)N(C)C yielded an AC50 of 11.1 µM. CCCc1cc(=O)n2[nH]cc(-c3ccc(Cl)cc3)c2n1 was tested, and the AC50 was 11.9 µM. CC(=O)NN1C(=O)c2ccc3c4c(ccc(c24)C1=O)C(=O)N(NC(C)=O)C3=O showed an AC50 of 3.65 µM. Cc1cccc2sc(NNC(=O)c3ccc(S(=O)(=O)N4CC(C)CC(C)C4)cc3)nc12 (configuration not stated) showed an AC50 of 6.52 µM. Compound CCC(=O)NC(c1ccc(Cl)cc1Cl)c1ccc2cccnc2c1O (configuration not stated) has an AC50 of 2.34 µM. For CCCCCCCCCCCCCCCC[N+](C)(C)CC, the AC50 was 6.57 µM. For COc1ccc(NC(=O)/C(Cl)=C(/Cl)S(=O)Cc2ccc(C)cc2)cn1 (configuration not stated), the AC50 was 1.3 µM. Cc1ccc(-c2cc3cccc[n+]3cc2-c2ccc(C)cc2)cc1 gave an AC50 of 0.566 µM. With COc1ccc(OC)c(NC(=O)c2nc(S(=O)(=O)Cc3ccccc3)ncc2Cl)c1 the AC50 was 7.87 µM. Compound O=S(=O)(Nc1cc(Sc2cccc3cccnc23)c(O)c2ccccc12)c1ccc(F)cc1 has an AC50 of 3.9 µM. Compound CCOC(=O)c1cnc(-n2nc(C)cc2C)nc1NNc1nc(-c2ccccc2)cc(-c2ccccc2)n1 has an AC50 of 4.09 µM. With CCC(=O)NC(c1cc(Cl)c2cccnc2c1O)C1CC1 (configuration not stated) the AC50 was 6.34 µM. In the case of O=C(N/N=C/c1ccc(O)c2ncccc12)c1cccc(Br)c1, the AC50 was 3.05 µM. In the case of CC[N+](C)(CC)CCC(c1ccccc1)C1CCCCC1 (configuration not stated), the AC50 was > 26 µM (inactive). In the case of CC1CCC(C(C)C)C(OC(=O)Cn2c(-c3ccc(Br)cc3)[n+](C)c3ccccc32)C1 (configuration not stated), the AC50 was 3.86 µM and 4.4 µM. Work on Cc1ccc(NC2=CC(=O)C(=O)c3ccccc32)cc1 yielded an AC50 of 7.65 µM. CCOc1ccccc1NC(=O)c1nc(S(=O)(=O)Cc2cccc(C)c2)ncc1Cl gave an AC50 of 7.91 µM. Work on O=C(OCn1ncc(Br)c(Br)c1=O)c1ccc(F)cc1 yielded an AC50 of 5.09 µM. Cc1cccc(NC(=O)c2nc(S(=O)(=O)Cc3ccccc3)ncc2Cl)c1 was tested, and the AC50 was 15.8 µM. With CCOC(=O)[C@@H]1[C@H]2COc3cc(OC)ccc3[C@H]2N2C(=O)N(c3ccc(C(F)(F)F)cc3)C(=O)[C@]12C the AC50 was 15 µM. O=C(N/N=C/c1sc2ccccc2c1O)c1cccc2ccccc12 gave an AC50 of 4.8 µM. In the case of COc1ccc2nc(C)cc(N/N=C/c3ccccc3)c2c1, the AC50 was 13.8 µM. In the case of Cc1cccc(N2C(=S)N=C(Nc3c(C)cccc3C)C23CCOC(C)(C)C3)c1 (configuration not stated), the AC50 was 3.79 µM. CC(=O)Nc1ccc(NC2=C/C(=N/S(=O)(=O)c3cccs3)c3ccccc3C2=O)cc1 showed an AC50 of 7.66 µM. CCCCNc1c(-c2cccc(-c3ccc(OC)cc3)c2)nc2ccc(C)cn12 gave an AC50 of 7.32 µM. c1ccc2c(NCCCN3CCOCC3)c3ccccc3nc2c1 gave an AC50 of 6.37 µM. Compound O=C(N/N=C/c1ccc(O)cc1O)c1ccc(NC(=O)C2CCCCC2)cc1 has an AC50 of 13 µM. Cc1ccc(NS(=O)(=O)c2cc([N+](=O)[O-])ccc2N/N=C/c2sc(N3CCOCC3)nc2-c2ccccc2)c(C)c1 showed an AC50 of 11.9 µM. Cc1cc(C)n(-c2nc(NCCO)c3c4c(sc3n2)CCCC4)n1 was tested, and the AC50 was > 26 µM (inactive). For CCOc1cccc(/C=N/Nc2ccc(S(=O)(=O)N(CC)CC)cn2)c1O, the AC50 was 3.67 µM. In the case of Cc1ccccc1N=Nc1ccc(O)c2ncccc12, the AC50 was 4.41 µM. With Cc1cccc(C(=O)Nc2ccc(C(=O)/C=C/c3cccnc3)cc2)c1 the AC50 was 7.53 µM. In the case of O=C(Nc1ccc(Cl)cc1)Nc1nnc(-c2ccncc2)s1, the AC50 was 4.78 µM. Cc1ccc(NC(=O)Cn2c(O)c(N=NC(=O)c3cc4ccccc4cc3O)c3ccccc32)cc1 gave an AC50 of 8.15 µM. COc1cc2sc(-c3ccccc3OC)c(-c3ccc(OCCN4CCCCC4)cc3)c2cc1OC gave an AC50 of 7.57 µM. In the case of CC1CCc2c(sc3nc(C(C)(C)C)nc(N4CCN(C(=O)CCl)CC4)c23)C1 (configuration not stated), the AC50 was 7.59 µM. O=c1cnnc(N/N=C/c2ccccn2)[nH]1 was tested, and the AC50 was 3.93 µM. In the case of CC1=[N+](C)c2ccc3ccccc3c2C1(C)C, the AC50 was 14.6 µM. With NS(=O)(=O)c1ccc(N=Nc2ccc(O)c3ncccc23)cc1 the AC50 was 8.05 µM. With Cn1c(=O)[nH]c(=O)c2c1nc(N1CCN(C(c3ccccc3)c3ccccc3)CC1)n2CCO the AC50 was 10.8 µM. Work on CNC[C@@H](CC1CCCCC1)NC[C@H](CC(C)C)NCCc1cccc(C(F)(F)F)c1 yielded an AC50 of 4.4 µM. Compound CC1(C)Cc2c(c(N3CCOCC3)nc3sc4c(NN)ncnc4c23)CS1 has an AC50 of 6.38 µM. Work on COc1ccccc1NC(=O)Cn1cc(C(=O)c2ccco2)c2ccccc21 yielded an AC50 of 8.7 µM. For O=C1/C(=C/c2cccnc2)CCC/C1=C\c1cccnc1, the AC50 was 6.89 µM. C#CCn1c(=NC(=O)c2ccc(S(=O)(=O)N3CCc4ccccc4C3)cc2)sc2cc(S(N)(=O)=O)ccc21 showed an AC50 of 3.64 µM. Compound CCc1ccc(C(=O)NNc2cc(Cl)ccc2Cl)cc1 has an AC50 of 8 µM. CCSc1ccc(NC(=O)c2cccnc2)cc1 gave an AC50 of 11.1 µM. O=C(COc1ccccc1-c1ccccc1)N/N=C/c1ccc2ccccc2c1 was tested, and the AC50 was 8.67 µM. Compound O=C(N/N=C(\c1ccccc1)c1ccccn1)c1ccccc1Cl has an AC50 of 6.14 µM. Work on Cc1cccc(-n2c(C)cc(/C=N/n3cnnc3)c2C)c1 yielded an AC50 of 14.5 µM. Compound Cc1ccccc1OCCn1c(C)nc2ccccc21 has an AC50 of 15.2 µM. Work on CCCCSc1ccc(NC(=O)c2cccnc2)cc1 yielded an AC50 of 14.7 µM. Compound COc1ccccc1NC(=O)CN(c1ccc(C23CC4CC(CC(C4)C2)C3)cc1)S(C)(=O)=O has an AC50 of 5.11 µM. c1ccc(Nc2nc(NCc3ccco3)c3ccccc3n2)cc1 showed an AC50 of 8.02 µM.
